Results on eleven compounds are retold here after patent US20260022143A1, “Cyclic Peptide Inhibitors of IL-23” (JANSSEN PHARMACEUTICA NV, priority 2022, published 2026).

Molecules are shown by their SMILES. Where a name gives a salt, the structure may show the parent alone. Starred links: 1 amine or outer side, 2 acyl side, 3 side chain; linkers in the order of their positions; H or OH if unused. Positions of bridges follow the written chain, without caps; N, C: chain ends. Non-standard residues stand in square brackets, D forms with d. Residues, ends and D or L forms follow the SMILES beside them. Groups on a side chain read outwards from the residue. *: point of attachment. Trp(7-(3-AcNH-Ph)) = CC(=O)Nc1cccc(-c2cccc3c(C[C@H](N)C(=O)O)c[nH]c23)c1; X13 = C[N+]1(Cc2cn(-c3ccc(C[C@H](N[*:1])C(=O)[*:2])cc3)nn2)CCOCC1; Me3N+(CH2)2O(CH2)2O(CH2)2CO = C[N+](C)(C)CCOCCOCCC(=O)*; Trp(7-CF3) = N[C@@H](Cc1c[nH]c2c(C(F)(F)F)cccc12)C(=O)O; X67 = COCc1cn(-c2ccc(C[C@H](N[*:1])C(=O)[*:2])cc2)nn1; Trp(7-Me) = Cc1cccc2c(C[C@H](N)C(=O)O)c[nH]c12; Hexanoyl(6-NMe3+) = C[N+](C)(C)CCCCCC(=O)*; γGlu = O=C(O)[C@H](CCC(=O)[*:2])N[*:1]; 2Nal = N[C@@H](Cc1ccc2ccccc2c1)C(=O)O; AEF = NCCOc1ccc(C[C@H](N)C(=O)O)cc1; X10 = C[N+](C)(C)C[C@H](CC(=O)O)N*; 3Pal = N[C@@H](Cc1cccnc1)C(=O)O; Myristoyl = CCCCCCCCCCCCCC(=O)*; Lys(Me) = CNCCCC[C@H](N)C(=O)O; NMeK = CN[C@@H](CCCCN)C(=O)O; Pen = CC(C)(S)[C@H](N)C(=O)O; Suc = O=C(CCC(=O)[*:2])[*:1]; Lauroyl = CCCCCCCCCCCC(=O)*; X86 = C[N+]1(C)CCCC(C*)C1; Thp = NC1(C(=O)O)CCOCC1; X3 = C[N+](C)(C)CCCCC*; AEEA = NCCOCCOCC(=O)O; Tfa = O=C(C(F)(F)F)*; Sar = CNCC(=O)O

The series is described as follows: Exposed Polar Surface Area (EPSA). It counts as physicochemical. Particulars: SFC on Chirex 3014 column; sample 1 mM DMSO stock; read-out: EPSA. A digest of the protocol: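 Chirex 3014 column, 35 °C, 4 mL/min; CO2/MeOH + 20 mM NH4 formate, 5→60% modifier at 20%/min. UV/MS detection. EPSA (Å^2) from retention time vs 8-standard calibration line; duplicates; 1 mM DMSO stock injected undiluted.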
With `CCCCCCCCCCCCCC(=O)N[C@@H](CCC(=O)NCCOCCOCC(=O)NCCOCCOCC(=O)NCCCC[C@@H]1NC(=O)[C@H](Cc2c[nH]c3c(C)cccc23)NC(=O)[C@H]([C@@H](C)O)NC(=O)[C@H](CC(=O)N(C)C)NC(=O)[C@@H](NC(=O)CCOCCOCC[N+](C)(C)C)C(C)(C)SSC(C)(C)[C@@H](C(=O)N[C@@H](Cc2ccc(OCCCCC[N+](C)(C)C)cc2)C(=O)N[C@@H](Cc2ccc3ccccc3c2)C(=O)NC2(C(=O)N[C@@H](CCCCN(C)C(C)=O)C(=O)N[C@@H](CC(N)=O)C(=O)N[C@@H](Cc3cccnc3)C(=O)N(C)[C@@H](CCCCNC(=O)COCCOCCNC(=O)COCCOCCNC(=O)CC[C@H](NC(=O)CCCCCCCCCCCCC)C(=O)O)C(N)=O)CCOCC2)NC1=O)C(=O)O` [compound 355, cPEG3aCO-Pen(3)-N(N(Me)2)-T-7MeW-K(PEG2PEG2gEC14)-Pen(3)-TMAPF-2Nal-THP-K(NMeac)-N-3Pya-NMeK(PEG2PEG2gEC14)-CONH2] ({Me3N+(CH2)2O(CH2)2O(CH2)2CO}-[Pen]D(NMe2)T[Trp(7-Me)]K([AEEA-AEEA-γGlu-Myristoyl])[Pen]Y(X3)[2Nal][Thp][Lys(Me)](Ac)N[3Pal][NMeK]([AEEA-AEEA-γGlu-Myristoyl])-NH2; disulfide 1-6), the EPSA is 186 A^2. Under `CC(=O)N(C)CCCC[C@@H]1NC(=O)[C@H](Cc2c[nH]c3c(C(F)(F)F)cccc23)NC(=O)[C@H]([C@@H](C)O)NC(=O)[C@H](CC(=O)N(C)C)NC(=O)[C@@H](NC(=O)C(F)(F)F)C(C)(C)SSC(C)(C)[C@@H](C(=O)N[C@@H](Cc2ccc(OCCN)cc2)C(=O)N[C@@H](Cc2ccc3ccccc3c2)C(=O)NC2(C(=O)N[C@@H](CCCCN(C)C(C)=O)C(=O)N[C@@H](CC(N)=O)C(=O)N[C@@H](Cc3cccnc3)C(=O)N(C)CC(=O)N(C)C)CCOCC2)NC1=O` [compound 94, CF3CO-Pen(3)-N(N(Me)2)-T-7CF3W-K(NMeAc)-Pen(3)-AEF-2Nal-THP-K(NMeAc)-N-3Pya-Sar-CON(Me)2] (Tfa-[Pen]D(NMe2)T[Trp(7-CF3)][Lys(Me)](Ac)[Pen][AEF][2Nal][Thp][Lys(Me)](Ac)N[3Pal][Sar]-NMe2; disulfide 1-6) stands 142 A^2. Under `CC(=O)NCCCC[C@H](NC(=O)[C@H](CCC(=O)O)NC(=O)C1(NC(=O)[C@H](Cc2ccc3ccccc3c2)NC(=O)[C@H](Cc2ccc(-n3cc(C[N+]4(C)CCOCC4)nn3)cc2)NC(=O)[C@H]2NC(=O)[C@H](CCCCNC(C)=O)NC(=O)[C@H](Cc3c[nH]c4c(C)cccc34)NC(=O)[C@H]([C@@H](C)O)NC(=O)[C@H](CC(N)=O)NC(=O)[C@@H](NC(C)=O)C(C)(C)SSC2(C)C)CCOCC1)C(=O)N[C@@H](Cc1cccnc1)C(=O)N(C)CC(N)=O` [compound 460] (Ac-[Pen]NT[Trp(7-Me)]K(Ac)[Pen][X13][2Nal][Thp]EK(Ac)[3Pal][Sar]-NH2; disulfide 1-6) stands 167 A^2; under `CC(=O)NCCCC[C@@H]1NC(=O)[C@H](Cc2c[nH]c3c(-c4cccc(NC(C)=O)c4)cccc23)NC(=O)[C@H]([C@@H](C)O)NC(=O)[C@H](CC(N)=O)NC(=O)[C@@H](NC(C)=O)C(C)(C)SSC(C)(C)[C@@H](C(=O)N[C@@H](Cc2ccc(OCCCCC[N+](C)(C)C)cc2)C(=O)N[C@@H](Cc2ccc3ccccc3c2)C(=O)NC2(C(=O)N[C@@H](CCCCNC(C)=O)C(=O)N[C@@H](CC(N)=O)C(=O)N[C@@H](Cc3cccnc3)C(=O)N(C)CC(N)=O)CCOCC2)NC1=O` [compound 452, MeCO-Pen(3)-N-T-7(3NAcPh)W-K(Ac)-Pen(3)-TMAPF-2Nal-THP-K(Ac)-N-3Pya-Sar-CONH2] (Ac-[Pen]NT[Trp(7-(3-AcNH-Ph))]K(Ac)[Pen]Y(X3)[2Nal][Thp]K(Ac)N[3Pal][Sar]-NH2; disulfide 1-6), 163 A^2; under `CC(=O)NCCCC[C@@H]1NC(=O)[C@H](Cc2c[nH]c3c(C)cccc23)NC(=O)[C@H]([C@@H](C)O)NC(=O)[C@H](CC(N)=O)NC(=O)[C@@H](NC(=O)[C@@H](CCCCNC(=O)CCC(=O)N[C@@H](CC(=O)O)C[N+](C)(C)C)NC(C)=O)C(C)(C)SSC(C)(C)[C@@H](C(=O)N[C@@H](Cc2ccc(OCCN)cc2)C(=O)N[C@@H](Cc2ccc3ccccc3c2)C(=O)NC2(C(=O)N[C@@H](CCCCNC(C)=O)C(=O)N[C@@H](CC(N)=O)C(=O)N[C@@H](Cc3cccnc3)C(=O)N(C)CC(N)=O)CCOCC2)NC1=O` [compound 108] (Ac-[dK]([Suc-X10])[Pen]NT[Trp(7-Me)]K(Ac)[Pen][AEF][2Nal][Thp]K(Ac)N[3Pal][Sar]-NH2; disulfide 2-7), 173 A^2. Under `CC(=O)NCCCC[C@@H]1NC(=O)[C@H](Cc2c[nH]c3c(C)cccc23)NC(=O)[C@H]([C@@H](C)O)NC(=O)[C@H](CC(N)=O)NC(=O)[C@@H](NC(=O)[C@@H](CCCCNC(=O)CCOCCOCC[N+](C)(C)C)NC(C)=O)C(C)(C)SSC(C)(C)[C@@H](C(=O)N[C@@H](Cc2ccc(OCCN)cc2)C(=O)N[C@@H](Cc2ccc3ccccc3c2)C(=O)NC2(C(=O)N[C@@H](CCCCNC(C)=O)C(=O)N[C@@H](CC(N)=O)C(=O)N[C@@H](Cc3cccnc3)C(=O)N(C)CC(N)=O)CCOCC2)NC1=O` [compound 88] (Ac-[dK](Me3N+(CH2)2O(CH2)2O(CH2)2CO)[Pen]NT[Trp(7-Me)]K(Ac)[Pen][AEF][2Nal][Thp]K(Ac)N[3Pal][Sar]-NH2; disulfide 2-7) stands 158 A^2; under `CC(=O)N(C)CCCC[C@H](NC(=O)C1(NC(=O)[C@H](Cc2ccc3ccccc3c2)NC(=O)[C@H](Cc2ccc(OCCCCC[N+](C)(C)C)cc2)NC(=O)[C@H]2NC(=O)[C@H](CCC(=O)N(C)C)NC(=O)[C@H](Cc3c[nH]c4c(C)cccc34)NC(=O)[C@H]([C@@H](C)O)NC(=O)[C@H](CC(=O)N(C)C)NC(=O)[C@@H](NC(=O)CCOCCOCC[N+](C)(C)C)C(C)(C)SSC2(C)C)CCOCC1)C(=O)N[C@@H](CC(N)=O)C(=O)N[C@@H](Cc1cccnc1)C(=O)N(C)CC(=O)N(C)C` [compound 312, cPEG3aCO-Pen(3)-N(N(Me)2)-T-7MeW-Q(N(Me)2)-Pen(3)-TMAPF-2Nal-THP-K(NMeAC)-N-3Pya-Sar-CON(Me)2] ({Me3N+(CH2)2O(CH2)2O(CH2)2CO}-[Pen]D(NMe2)T[Trp(7-Me)]E(NMe2)[Pen]Y(X3)[2Nal][Thp][Lys(Me)](Ac)N[3Pal][Sar]-NMe2; disulfide 1-6), 151 A^2; under `COCc1cn(-c2ccc(C[C@H](NC(=O)[C@H]3NC(=O)[C@H](CCCCN(C)C(C)=O)NC(=O)[C@H](Cc4c[nH]c5c(C)cccc45)NC(=O)[C@H]([C@@H](C)O)NC(=O)[C@H](CC(=O)N(C)C)NC(=O)[C@@H](NC(=O)CCOCCOCC[N+](C)(C)C)C(C)(C)SSC3(C)C)C(=O)N[C@@H](Cc3ccc4ccccc4c3)C(=O)NC3(C(=O)N[C@@H](CCCCN(C)C(C)=O)C(=O)N[C@@H](CC(N)=O)C(=O)N[C@@H](Cc4cccnc4)C(=O)N(C)CC(=O)N(C)C)CCOCC3)cc2)nn1` [compound 303, cPEG3aCO-Pen(3)-N(N(Me)2)-T-7MeW-K(NMeAc)-Pen(3)-F(4TzlMME)-2Nal-THP-K(NMeAc)-N-3Pya-Sar-CON(Me)2] ({Me3N+(CH2)2O(CH2)2O(CH2)2CO}-[Pen]D(NMe2)T[Trp(7-Me)][Lys(Me)](Ac)[Pen][X67][2Nal][Thp][Lys(Me)](Ac)N[3Pal][Sar]-NMe2; disulfide 1-6), 152 A^2. Regarding `CC(=O)NCCCC[C@@H]1NC(=O)[C@H](Cc2c[nH]c3c(C)cccc23)NC(=O)[C@H]([C@@H](C)O)NC(=O)[C@H](CC(N)=O)NC(=O)[C@@H](NC(=O)[C@@H](CCCCNC(=O)CCCCC[N+](C)(C)C)NC(C)=O)C(C)(C)SSC(C)(C)[C@@H](C(=O)N[C@@H](Cc2ccc(OCCN)cc2)C(=O)N[C@@H](Cc2ccc3ccccc3c2)C(=O)NC2(C(=O)N[C@@H](CCC(=O)O)C(=O)N[C@@H](CC(N)=O)C(=O)N[C@@H](Cc3cccnc3)C(=O)N(C)CC(N)=O)CCOCC2)NC1=O` [compound 83] (Ac-[dK](Hexanoyl(6-NMe3+))[Pen]NT[Trp(7-Me)]K(Ac)[Pen][AEF][2Nal][Thp]EN[3Pal][Sar]-NH2; disulfide 2-7 (inferred)), the EPSA is 167 A^2.

With `CC(=O)N(C)CCCC[C@@H]1NC(=O)[C@H](Cc2c[nH]c3c(C)cccc23)NC(=O)[C@H]([C@@H](C)O)NC(=O)[C@H](CC(=O)N(C)C)NC(=O)[C@@H](NC(=O)CCOCCOCC[N+](C)(C)C)C(C)(C)SSC(C)(C)[C@@H](C(=O)N[C@@H](Cc2ccc(OCC3CCC[N+](C)(C)C3)cc2)C(=O)N[C@@H](Cc2ccc3ccccc3c2)C(=O)NC2(C(=O)N[C@@H](CCCCN(C)C(C)=O)C(=O)N[C@@H](CC(N)=O)C(=O)N[C@@H](Cc3cccnc3)C(=O)N(C)CC(=O)N(C)C)CCOCC2)NC1=O` (stereo partly drawn) [compound 215, cPEG3aCO-Pen(3)-N(N(Me)2)-T-7MeW-K(NMeAc)-Pen(3)-DMMMF-2Nal-THP-K(NMeAc)-N-3Pya-Sar-CON(Me)2] ({Me3N+(CH2)2O(CH2)2O(CH2)2CO}-[Pen]D(NMe2)T[Trp(7-Me)][Lys(Me)](Ac)[Pen]Y(X86)[2Nal][Thp][Lys(Me)](Ac)N[3Pal][Sar]-NMe2; disulfide 1-6), the EPSA amounted to 145 A^2. With `CCCCCCCCCCCC(=O)N[C@@H](CCC(=O)NCCOCCOCC(=O)NCCOCCOCC(=O)NCCCC[C@@H]1NC(=O)[C@@H](NC(=O)[C@@H](CCCCNC(=O)COCCOCCNC(=O)COCCOCCNC(=O)CC[C@H](NC(=O)CCCCCCCCCCC)C(=O)O)NC(=O)CCOCCOCC[N+](C)(C)C)C(C)(C)SSC(C)(C)[C@@H](C(=O)N[C@@H](Cc2ccc(OCCCCC[N+](C)(C)C)cc2)C(=O)N[C@@H](Cc2ccc3ccccc3c2)C(=O)NC2(C(=O)N[C@@H](CCCCN(C)C(C)=O)C(=O)N[C@@H](CC(N)=O)C(=O)N[C@@H](Cc3cccnc3)C(=O)N(C)CC(=O)N(C)C)CCOCC2)NC(=O)[C@H](CCCCN(C)C(C)=O)NC(=O)[C@H](Cc2c[nH]c3c(C)cccc23)NC(=O)[C@H]([C@@H](C)O)NC1=O)C(=O)O` [compound 380, cPEG3aCO-k(PEG2PEG2gEC12)-Pen(3)-K(PEG2PEG2gEC12)-T-7MeW-K(NMeAc)-Pen(3)-TMAPF-2Nal-THP-K(NMeAc)-N-3Pya-Sar-CON(Me)2] ({Me3N+(CH2)2O(CH2)2O(CH2)2CO}-[dK]([AEEA-AEEA-γGlu-Lauroyl])[Pen]K([AEEA-AEEA-γGlu-Lauroyl])T[Trp(7-Me)][Lys(Me)](Ac)[Pen]Y(X3)[2Nal][Thp][Lys(Me)](Ac)N[3Pal][Sar]-NMe2; disulfide 2-7), the EPSA was 171 A^2.
